Source: paper PMC6358721, “Engineering of B800 bacteriochlorophyll binding site specificity in the Rhodobacter sphaeroides LH2 antenna” (Biochimica et Biophysica Acta. Bioenergetics, 2019)

Molecular target: T1, LH2 (light-harvesting 2 complex), B800 site; B850 LH2 when B800-depleted (Cereibacter sphaeroides, UniProt Q3J144+Q3J145)
T1 construct: gene pucA; native complex purified from Rba. sphaeroides membranes (LDAO, then beta-DDM); B800 BChl a removed with LDS for reconstitution; B850 BChl a and carotenoid retained; ring of nine alpha-beta pairs; R30L/R30F genomic at the puc1BA locus, R30E/R30M from pRK415 vectors, in delta-puc1BA delta-puc2BA delta-pufBALMX
Experiment: reconstitution of B800-depleted LH2, absorption spectra
Format: binding
Settings: 20 mM Tris pH 8, 0.5% beta-DDM, 12 uM pigment, room temperature

T1 sequence (Q3J144 whole entry): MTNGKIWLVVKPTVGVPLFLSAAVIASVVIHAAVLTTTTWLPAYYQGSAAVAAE
T1 sequence (Q3J145 2-51): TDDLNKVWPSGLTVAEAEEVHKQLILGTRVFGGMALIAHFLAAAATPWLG

C=Cc1c(C=O)c2[n]3c1C=C1N=C(C=c4c(C)c5c([n]4[Mg]3)=C(C3=NC(=C2)[C@@H](C)[C@@H]3CCC(=O)OC/C=C(\C)CCC[C@H](C)CCC[C@H](C)CCCC(C)C)[C@@H](C(=O)OC)C5=O)C(CC)=C1C [Chl f]
reconstitution of B800-depleted LH2, absorption spectra: we generated additional novel reconstitutions using Chl f
